{"source": "ChEMBL document CHEMBL1821675", "about": "“The selective P-TEFb inhibitor CAN508 targets angiogenesis” (Eur J Med Chem, 2011)", "key": {"[1]": {"biological_target": "NUAK family SNF1-like kinase 1 (Homo sapiens) (UniProt O60285)", "sequence (O60285 whole entry)": "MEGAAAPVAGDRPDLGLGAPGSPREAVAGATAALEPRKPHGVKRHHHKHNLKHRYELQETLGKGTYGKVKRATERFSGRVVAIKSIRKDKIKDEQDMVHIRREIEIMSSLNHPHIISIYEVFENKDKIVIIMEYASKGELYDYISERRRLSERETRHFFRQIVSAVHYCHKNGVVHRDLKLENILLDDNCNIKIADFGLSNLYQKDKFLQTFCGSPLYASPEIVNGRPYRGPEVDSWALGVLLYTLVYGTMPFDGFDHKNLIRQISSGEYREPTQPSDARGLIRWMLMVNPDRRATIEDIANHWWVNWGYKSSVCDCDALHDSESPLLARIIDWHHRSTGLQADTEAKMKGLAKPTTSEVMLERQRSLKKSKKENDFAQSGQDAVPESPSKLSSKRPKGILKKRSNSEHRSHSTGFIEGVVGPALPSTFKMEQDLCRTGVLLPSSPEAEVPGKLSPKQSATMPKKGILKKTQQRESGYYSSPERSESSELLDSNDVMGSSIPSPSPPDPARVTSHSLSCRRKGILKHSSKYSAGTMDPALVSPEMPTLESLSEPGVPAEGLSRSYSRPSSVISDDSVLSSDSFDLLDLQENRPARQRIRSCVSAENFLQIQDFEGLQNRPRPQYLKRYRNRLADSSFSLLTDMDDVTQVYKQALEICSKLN", "experiment": "Inhibition of NUAK1 assessed as residual activity at 10 uM by radioactivity assay in presence of 20 uM ATP"}, "SK-MEL-5": {"tested_on": "SK-MEL-5", "experiment": "Cytotoxicity against human SK-MEL-5 cells", "type": "functional"}, "[2]": {"biological_target": "Serine/threonine-protein kinase Nek2 (Homo sapiens) (UniProt P51955)", "sequence (P51955 whole entry)": "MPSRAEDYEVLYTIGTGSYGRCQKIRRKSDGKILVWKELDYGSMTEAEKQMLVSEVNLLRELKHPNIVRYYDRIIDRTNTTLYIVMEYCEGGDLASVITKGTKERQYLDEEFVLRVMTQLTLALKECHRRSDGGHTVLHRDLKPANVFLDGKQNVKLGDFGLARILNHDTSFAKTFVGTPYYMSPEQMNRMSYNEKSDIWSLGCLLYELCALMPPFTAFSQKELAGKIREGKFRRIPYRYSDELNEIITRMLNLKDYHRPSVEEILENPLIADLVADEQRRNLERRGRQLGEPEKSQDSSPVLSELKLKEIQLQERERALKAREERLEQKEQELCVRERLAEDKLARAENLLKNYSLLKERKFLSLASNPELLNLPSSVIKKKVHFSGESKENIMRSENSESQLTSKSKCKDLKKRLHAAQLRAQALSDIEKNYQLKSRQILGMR", "experiment": "Inhibition of NEK2a assessed as residual activity at 10 uM by radioactivity assay in presence of 50 uM ATP"}, "[3]": {"biological_target": "Glycogen synthase kinase-3 beta (Homo sapiens) (UniProt P49841)", "experiment": "Inhibition of GSK3b assessed as residual activity at 10 uM by radioactivity assay in presence of 5 uM ATP"}, "[4]": {"biological_target": "MAP/microtubule affinity-regulating kinase 4 (Homo sapiens) (UniProt Q96L34)", "experiment": "Inhibition of MARK4 assessed as residual activity at 10 uM by radioactivity assay in presence of 50 uM ATP"}, "EKVX": {"tested_on": "EKVX", "experiment": "Cytotoxicity against human EKVX cells", "type": "functional"}, "NCI-H460": {"tested_on": "NCI-H460", "experiment": "Cytotoxicity against human NCI-H460 cells", "type": "functional"}, "SK-MEL-2": {"tested_on": "SK-MEL-2", "experiment": "Cytotoxicity against human SK-MEL-2 cells", "type": "functional"}, "OVCAR-5": {"tested_on": "OVCAR-5", "experiment": "Cytotoxicity against human OVCAR5 cells", "type": "functional"}, "[5]": {"biological_target": "Mitogen-activated protein kinase kinase kinase 1 (Homo sapiens) (UniProt Q13233)", "experiment": "Inhibition of MEKK1 assessed as residual activity at 10 uM by radioactivity assay in presence of 20 uM ATP"}, "SNB-75": {"tested_on": "SNB-75", "experiment": "Cytotoxicity against human SNB75 cells", "type": "functional"}, "OVCAR-3": {"tested_on": "OVCAR-3", "experiment": "Cytotoxicity against human OVCAR3 cells", "type": "functional"}, "HUVEC": {"tested_on": "HUVEC", "experiment": "Antiproliferative activity against HUVEC cells assessed as decrease in cell viability at 10 to 40 uM within 72 hrs by calcein AM staining-based fluorescence assay", "conditions": "human"}, "U-251": {"tested_on": "U-251", "experiment": "Cytotoxicity against human U251 cells", "type": "functional"}, "SNB-19": {"tested_on": "SNB-19", "experiment": "Cytotoxicity against human SNB19 cells", "type": "functional"}, "[6]": {"biological_target": "Serine/threonine-protein kinase MARK2 (Homo sapiens) (UniProt Q7KZI7)", "experiment": "Inhibition of MARK2 assessed as residual activity at 10 uM by radioactivity assay in presence of 20 uM ATP"}, "NCI-H522": {"tested_on": "NCI-H522", "experiment": "Cytotoxicity against human NCI-H522 cells", "type": "functional"}, "[7]": {"biological_target": "Aurora kinase A (Homo sapiens) (UniProt O14965)", "sequence (O14965 whole entry)": "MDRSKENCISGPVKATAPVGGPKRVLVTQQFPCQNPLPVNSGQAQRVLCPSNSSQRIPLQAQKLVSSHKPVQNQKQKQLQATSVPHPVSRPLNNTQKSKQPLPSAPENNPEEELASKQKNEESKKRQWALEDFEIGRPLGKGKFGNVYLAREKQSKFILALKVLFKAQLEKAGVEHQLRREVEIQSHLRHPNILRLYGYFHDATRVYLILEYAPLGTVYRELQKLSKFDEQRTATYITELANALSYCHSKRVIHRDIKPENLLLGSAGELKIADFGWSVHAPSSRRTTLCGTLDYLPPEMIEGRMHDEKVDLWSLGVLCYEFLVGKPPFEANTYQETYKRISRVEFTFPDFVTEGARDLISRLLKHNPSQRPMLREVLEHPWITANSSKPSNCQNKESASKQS", "experiment": "Inhibition of Aurora A assessed as residual activity at 10 uM by radioactivity assay in presence of 5 uM ATP"}, "[8]": {"biological_target": "Serine/threonine-protein kinase pim-1 (Homo sapiens) (UniProt P11309)", "sequence (P11309 whole entry, looked up)": "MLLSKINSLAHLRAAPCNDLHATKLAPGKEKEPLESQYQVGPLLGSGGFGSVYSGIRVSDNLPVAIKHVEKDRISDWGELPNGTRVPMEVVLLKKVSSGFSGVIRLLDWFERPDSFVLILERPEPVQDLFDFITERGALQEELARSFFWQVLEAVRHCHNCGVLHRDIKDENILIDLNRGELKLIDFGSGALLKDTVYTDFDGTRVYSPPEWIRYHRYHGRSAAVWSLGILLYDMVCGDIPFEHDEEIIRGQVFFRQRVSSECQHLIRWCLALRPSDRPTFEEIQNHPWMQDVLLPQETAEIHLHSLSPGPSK", "experiment": "Inhibition of PIM1 assessed as residual activity at 10 uM by radioactivity assay in presence of 20 uM ATP"}, "[9]": {"biological_target": "Tyrosine-protein kinase JAK2 (Homo sapiens) (UniProt O60674)", "sequence (O60674 whole entry)": "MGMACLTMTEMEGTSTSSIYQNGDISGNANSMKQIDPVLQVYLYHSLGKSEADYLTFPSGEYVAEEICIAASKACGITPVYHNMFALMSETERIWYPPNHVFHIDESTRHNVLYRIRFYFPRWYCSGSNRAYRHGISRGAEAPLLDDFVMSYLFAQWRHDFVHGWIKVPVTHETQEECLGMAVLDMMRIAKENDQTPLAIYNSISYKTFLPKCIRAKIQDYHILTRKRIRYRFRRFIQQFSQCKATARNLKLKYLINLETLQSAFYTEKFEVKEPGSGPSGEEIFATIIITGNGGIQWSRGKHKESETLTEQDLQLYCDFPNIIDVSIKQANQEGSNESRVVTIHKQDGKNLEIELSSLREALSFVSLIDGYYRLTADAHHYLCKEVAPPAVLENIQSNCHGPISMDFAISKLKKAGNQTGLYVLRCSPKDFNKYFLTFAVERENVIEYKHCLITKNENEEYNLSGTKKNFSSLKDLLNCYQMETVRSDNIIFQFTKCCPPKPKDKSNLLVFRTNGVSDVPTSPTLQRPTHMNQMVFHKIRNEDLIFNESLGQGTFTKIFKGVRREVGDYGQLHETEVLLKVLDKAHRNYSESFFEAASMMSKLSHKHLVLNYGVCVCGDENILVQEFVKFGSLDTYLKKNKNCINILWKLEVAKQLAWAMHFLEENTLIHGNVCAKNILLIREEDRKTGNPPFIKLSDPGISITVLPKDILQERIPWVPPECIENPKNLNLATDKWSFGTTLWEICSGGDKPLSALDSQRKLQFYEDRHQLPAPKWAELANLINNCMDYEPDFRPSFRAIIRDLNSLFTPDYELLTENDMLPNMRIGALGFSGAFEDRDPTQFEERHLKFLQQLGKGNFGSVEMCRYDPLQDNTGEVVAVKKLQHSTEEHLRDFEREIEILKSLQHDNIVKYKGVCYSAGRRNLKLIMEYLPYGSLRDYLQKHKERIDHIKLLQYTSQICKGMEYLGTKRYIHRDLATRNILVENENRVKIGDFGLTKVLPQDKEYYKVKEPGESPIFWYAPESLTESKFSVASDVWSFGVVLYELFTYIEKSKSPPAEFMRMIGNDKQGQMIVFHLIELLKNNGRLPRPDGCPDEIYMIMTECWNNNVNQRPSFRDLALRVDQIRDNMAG", "experiment": "Inhibition of JAK2 assessed as residual activity at 10 uM by radioactivity assay in presence of 5 uM ATP"}, "[10]": {"biological_target": "Mitogen-activated protein kinase kinase kinase 7 (Homo sapiens) (UniProt O43318)", "experiment": "Inhibition of TAK1 assessed as residual activity at 10 uM by radioactivity assay in presence of 5 uM ATP"}, "NCI-H23": {"tested_on": "NCI-H23", "experiment": "Cytotoxicity against human NCI-H23 cells", "type": "functional"}, "[11]": {"biological_target": "Cyclin-dependent kinase 9 (Homo sapiens) (UniProt P50750)", "experiment": "Inhibition of CDK9-catalyzed RNA polymerase 2 phosphorylation at Ser2 in human HMEC1 cells after 2 hrs by immunoblotting", "type": "cell-based"}, "[12]": {"biological_target": "Serine/threonine-protein kinase PAK 5 (Homo sapiens) (UniProt Q9P286)", "experiment": "Inhibition of PAK5 assessed as residual activity at 10 uM by radioactivity assay in presence of 20 uM ATP"}, "[13]": {"biological_target": "Homeodomain-interacting protein kinase 3 (Homo sapiens) (UniProt Q9H422)", "experiment": "Inhibition of HIPK3 assessed as residual activity at 10 uM by radioactivity assay in presence of 20 uM ATP"}, "MCF7": {"tested_on": "MCF7", "experiment": "Decrease in VEGF expression in human MCF7 cells at >10 uM after 24 hrs by sandwich ELISA", "type": "functional, cell-based"}, "[14]": {"biological_target": "Insulin receptor (Homo sapiens) (UniProt P06213)", "sequence (P06213 28-758 limits assumed)": "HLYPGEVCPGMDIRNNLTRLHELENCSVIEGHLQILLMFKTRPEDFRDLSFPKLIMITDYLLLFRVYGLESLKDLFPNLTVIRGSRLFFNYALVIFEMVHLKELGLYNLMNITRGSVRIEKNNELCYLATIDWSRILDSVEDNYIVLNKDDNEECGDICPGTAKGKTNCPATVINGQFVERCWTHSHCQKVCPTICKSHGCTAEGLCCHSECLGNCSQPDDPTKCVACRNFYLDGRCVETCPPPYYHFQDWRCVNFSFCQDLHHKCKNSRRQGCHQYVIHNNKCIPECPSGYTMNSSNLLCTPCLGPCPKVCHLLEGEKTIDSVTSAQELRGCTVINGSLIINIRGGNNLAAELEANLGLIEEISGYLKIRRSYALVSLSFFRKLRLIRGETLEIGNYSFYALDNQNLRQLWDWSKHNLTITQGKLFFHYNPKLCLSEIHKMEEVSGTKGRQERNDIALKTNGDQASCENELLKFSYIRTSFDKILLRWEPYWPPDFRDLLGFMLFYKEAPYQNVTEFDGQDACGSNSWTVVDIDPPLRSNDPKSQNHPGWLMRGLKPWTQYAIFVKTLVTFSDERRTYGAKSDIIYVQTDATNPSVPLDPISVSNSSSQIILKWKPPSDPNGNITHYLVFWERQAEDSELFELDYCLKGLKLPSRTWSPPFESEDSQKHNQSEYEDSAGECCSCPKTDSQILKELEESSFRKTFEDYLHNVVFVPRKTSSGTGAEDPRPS", "sequence (P06213 763-1382 limits assumed)": "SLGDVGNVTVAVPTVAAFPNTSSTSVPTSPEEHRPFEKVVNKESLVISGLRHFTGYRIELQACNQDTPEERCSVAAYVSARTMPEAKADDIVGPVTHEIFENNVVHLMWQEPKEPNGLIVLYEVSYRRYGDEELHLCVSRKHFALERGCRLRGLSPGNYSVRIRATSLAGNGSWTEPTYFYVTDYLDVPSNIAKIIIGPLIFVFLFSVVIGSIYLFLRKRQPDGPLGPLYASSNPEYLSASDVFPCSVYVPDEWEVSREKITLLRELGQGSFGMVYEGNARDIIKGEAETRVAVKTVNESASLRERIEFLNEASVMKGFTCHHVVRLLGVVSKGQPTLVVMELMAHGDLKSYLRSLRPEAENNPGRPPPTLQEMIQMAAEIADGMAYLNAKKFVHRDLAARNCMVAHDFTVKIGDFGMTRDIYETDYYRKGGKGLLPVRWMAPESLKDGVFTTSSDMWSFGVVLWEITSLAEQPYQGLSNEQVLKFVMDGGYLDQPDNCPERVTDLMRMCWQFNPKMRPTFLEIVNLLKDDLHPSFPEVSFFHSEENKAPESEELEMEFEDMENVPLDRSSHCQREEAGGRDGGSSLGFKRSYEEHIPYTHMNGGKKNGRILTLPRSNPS", "experiment": "Inhibition of IR assessed as residual activity at 10 uM by radioactivity assay in presence of 20 uM ATP"}, "HT-29": {"tested_on": "HT-29", "experiment": "Cytotoxicity against human HT-29 cells", "type": "functional"}, "[15]": {"biological_target": "Serine/threonine-protein kinase MARK1 (Homo sapiens) (UniProt Q9P0L2)", "experiment": "Inhibition of MARK1 assessed as residual activity at 10 uM by radioactivity assay in presence of 20 uM ATP"}, "HOP-92": {"tested_on": "HOP-92", "experiment": "Cytotoxicity against human HOP92 cells", "type": "functional"}, "[16]": {"biological_target": "CDK9/cyclin T1 (Homo sapiens) (UniProt O60563+P50750)", "experiment": "Inhibition of CDK9/cyclin T assessed as residual activity at 10 uM by radioactivity assay in presence of 50 uM ATP", "type": "protein-complex assay"}, "[17]": {"biological_target": "Inhibitor of nuclear factor kappa-B kinase subunit beta (Homo sapiens) (UniProt O14920)", "experiment": "Inhibition of IKK-beta assessed as residual activity at 10 uM by radioactivity assay in presence of 5 uM ATP"}, "[18]": {"experiment": "Antiangiogenic activity in VEGF-stimulated HMEC1 assessed as reduction in median length of tube at 40 uM after 16 hrs by photographic analysis", "type": "functional, Homo sapiens, HMEC-1", "parameters": "scale not given: the % may be the effect or the level left"}, "[19]": {"biological_target": "Homeodomain-interacting protein kinase 1 (Homo sapiens) (UniProt Q86Z02)", "experiment": "Inhibition of HIPK1 assessed as residual activity at 10 uM by radioactivity assay in presence of 20 uM ATP"}, "MDA-MB-231": {"tested_on": "MDA-MB-231", "experiment": "Cytotoxicity against human MDA-MB-231 cells", "type": "functional"}, "[20]": {"biological_target": "Mitogen-activated protein kinase 3 (Homo sapiens) (UniProt P27361)", "experiment": "Inhibition of ERK1 assessed as residual activity at 10 uM by radioactivity assay in presence of 5 uM ATP"}, "SF-539": {"tested_on": "SF-539", "experiment": "Cytotoxicity against human SF539 cells", "type": "functional"}, "LOX IMVI": {"tested_on": "LOX IMVI", "experiment": "Cytotoxicity against human LOXIMVI cells", "type": "functional"}, "HMEC-1": {"tested_on": "HMEC-1", "experiment": "Inhibition of RNA synthesis in human HMEC1 cells assessed as decrease in [3H] Uridine incorporation after 2 hrs by scintillation counting", "type": "functional, cell-based"}, "[21]": {"biological_target": "Ephrin type-A receptor 2 (Homo sapiens) (UniProt P29317)", "experiment": "Inhibition of EPHA2 assessed as residual activity at 10 uM by radioactivity assay in presence of 50 uM ATP"}, "[22]": {"biological_target": "MAP kinase-activated protein kinase 3 (Homo sapiens) (UniProt Q16644)", "experiment": "Inhibition of MAPKAP-K3 assessed as residual activity at 10 uM by radioactivity assay in presence of 20 uM ATP"}, "OVCAR-4": {"tested_on": "OVCAR-4", "experiment": "Cytotoxicity against human OVCAR4 cells", "type": "functional"}, "[23]": {"biological_target": "Serine/threonine-protein kinase 3 (Homo sapiens) (UniProt Q13188)", "sequence (Q13188 whole entry)": "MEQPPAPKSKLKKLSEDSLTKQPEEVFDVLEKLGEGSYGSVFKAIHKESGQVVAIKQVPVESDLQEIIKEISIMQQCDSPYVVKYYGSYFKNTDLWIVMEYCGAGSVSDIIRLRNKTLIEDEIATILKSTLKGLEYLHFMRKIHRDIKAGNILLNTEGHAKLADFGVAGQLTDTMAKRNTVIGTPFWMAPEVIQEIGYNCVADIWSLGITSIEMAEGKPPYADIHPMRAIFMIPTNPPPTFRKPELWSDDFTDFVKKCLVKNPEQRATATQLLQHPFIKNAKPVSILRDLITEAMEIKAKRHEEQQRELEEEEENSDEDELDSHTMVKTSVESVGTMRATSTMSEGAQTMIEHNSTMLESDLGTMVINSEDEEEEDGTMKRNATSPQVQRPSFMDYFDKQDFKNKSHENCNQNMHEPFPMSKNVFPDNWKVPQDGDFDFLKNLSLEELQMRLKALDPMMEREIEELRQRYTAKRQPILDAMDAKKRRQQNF", "experiment": "Inhibition of MST2 assessed as residual activity at 10 uM by radioactivity assay in presence of 20 uM ATP"}}, "note": "Activity calls are given as the source filed them. The rule behind the calls is not given here."}
{"smiles": "Nc1n[nH]c(N)c1/N=N/c1ccc(O)cc1", "values": [{"measurement": "Activity", "setting": "[1]", "result": 40, "unit": "%"}, {"measurement": "GI50", "setting": "SK-MEL-5", "result": 13.9, "unit": "µM"}, {"measurement": "Activity", "setting": "[2]", "result": 106, "unit": "%"}, {"measurement": "Activity", "setting": "[3]", "result": 64, "unit": "%"}, {"measurement": "Activity", "setting": "[4]", "result": 72, "unit": "%"}, {"measurement": "GI50", "setting": "EKVX", "result": 22, "unit": "µM"}, {"measurement": "GI50", "setting": "NCI-H460", "result": 25.1, "unit": "µM"}, {"measurement": "GI50", "setting": "SK-MEL-2", "result": 14.4, "unit": "µM"}, {"measurement": "GI50", "setting": "OVCAR-5", "result": 23.5, "unit": "µM"}, {"measurement": "Activity", "setting": "[5]", "result": 100, "unit": "%"}, {"measurement": "GI50", "setting": "SNB-75", "result": 18.5, "unit": "µM"}, {"measurement": "GI50", "setting": "OVCAR-3", "result": 22.8, "unit": "µM"}, {"measurement": "Activity", "setting": "HUVEC", "result": "Non-toxic"}, {"measurement": "GI50", "setting": "U-251", "result": 21.2, "unit": "µM"}, {"measurement": "GI50", "setting": "SNB-19", "result": 29.9, "unit": "µM"}, {"measurement": "Activity", "setting": "[6]", "result": 79, "unit": "%"}, {"measurement": "GI50", "setting": "NCI-H522", "result": 24.3, "unit": "µM"}, {"measurement": "Activity", "setting": "[7]", "result": 107, "unit": "%"}, {"measurement": "Activity", "setting": "[8]", "result": 40, "unit": "%"}, {"measurement": "Activity", "setting": "[9]", "result": 19, "unit": "%"}, {"measurement": "Activity", "setting": "[10]", "result": 53, "unit": "%"}, {"measurement": "GI50", "setting": "NCI-H23", "result": 19.1, "unit": "µM"}, {"measurement": "inhibition", "setting": "[11]", "result": "Dose-dependent effect"}, {"measurement": "Activity", "setting": "[12]", "result": 88, "unit": "%"}, {"measurement": "Activity", "setting": "[13]", "result": 84, "unit": "%"}, {"measurement": "Activity", "setting": "MCF7", "result": "Active"}, {"measurement": "Activity", "setting": "[14]", "result": 78, "unit": "%"}, {"measurement": "GI50", "setting": "HT-29", "result": 29.7, "unit": "µM"}, {"measurement": "Activity", "setting": "[15]", "result": 72, "unit": "%"}, {"measurement": "GI50", "setting": "HOP-92", "result": 18.2, "unit": "µM"}, {"measurement": "Activity", "setting": "[16]", "result": 12, "unit": "%"}, {"measurement": "Activity", "setting": "[17]", "result": 31, "unit": "%"}, {"measurement": "Activity", "setting": "[18]", "result": 50, "unit": "%"}, {"measurement": "Activity", "setting": "[19]", "result": 106, "unit": "%"}, {"measurement": "GI50", "setting": "MDA-MB-231", "result": 16.7, "unit": "µM"}, {"measurement": "Activity", "setting": "[20]", "result": 115, "unit": "%"}, {"measurement": "GI50", "setting": "SF-539", "result": 13.2, "unit": "µM"}, {"measurement": "GI50", "setting": "LOX IMVI", "result": 4.1, "unit": "µM"}, {"measurement": "IC50", "setting": "HMEC-1", "result": 20, "unit": "µM"}, {"measurement": "Activity", "setting": "[21]", "result": 101, "unit": "%"}, {"measurement": "Activity", "setting": "[22]", "result": 89, "unit": "%"}, {"measurement": "GI50", "setting": "OVCAR-4", "result": 19, "unit": "µM"}, {"measurement": "Activity", "setting": "[23]", "result": 57, "unit": "%"}]}
